Reference: patent EP0112332B1, “VITAMIN D GLYCOSIDES” (THE GENERAL HOSPITAL CORPORATION, priority 1982, dated 1984)

Legend:
[1] = in vivo, dosed parenterally and daily; cited from earlier work
[2] = tested on: Intestinal calcium transport; experiment: Intestinal calcium transport by the everted gut sac technique after oral dosing of vitamin D deficient rats; type: in vivo; details: for I/O (inside Ca⁴⁵/outside Ca⁴⁵) ± S.D.: 24 hours later, vehicle 1.6 ± 0.3; for stimulating intestinal calcium absorption (result in words): summary of the table data, oral dosing of rats
Protocol: (§1) The vitamin D₃, 3β-glucoside vitamin D₃, 3α-glucoside and the vitamin D₃, 3β glucoside acetate were tested for biological activity. Male weanling rats from Holtzmann Company, Madison, Wisconsin, U.S.A., were fed a vitamin D deficient diet that was adequate in phosphorus and low in calcium (0.02%) for 3-1/2 weeks. Groups of five animals received orally either 4 µg, 1 µg, 0.5 µg, 0.25 µg of Vitamin D₃ -3β- glucoside, 1 µg Vitamin D₃ -3α- glucoside or 2 µg Vitamin D₃ -3β- glucoside acetate in 50 µl of 95% ethanol or vehicle alone. 24 hours later the animals were sacrificed and the small intestine and blood were collected. Intestinal calcium transport studies were performed by the everted gut sac technique, and blood was used for serum calcium determinations.

[3] = Serum calcium determination (bone calcium mobilization) after oral dosing of vitamin D deficient rats on low calcium diet; type: in vivo
Protocol: as §1

Structure (SMILES) | times more potent than D₃ [1] | times more potent than the monohydroxy form of the vitamin [1] | I/O (inside Ca⁴⁵/outside Ca⁴⁵) ± S.D. ([2]; 2 µg orally in 50 µl of 95% ethanol) | stimulating intestinal calcium absorption (result in words) [2] | I/O (inside Ca⁴⁵/outside Ca⁴⁵) ± S.D. ([2]; 0.25 µg orally in 50 µl of 95% ethanol) | I/O (inside Ca⁴⁵/outside Ca⁴⁵) ± S.D. ([2]; 0.5 µg orally in 50 µl of 95% ethanol) | I/O (inside Ca⁴⁵/outside Ca⁴⁵) ± S.D. ([2]; 1 µg orally in 50 µl of 95% ethanol) | I/O (inside Ca⁴⁵/outside Ca⁴⁵) ± S.D. ([2]; 4 µg orally in 50 µl of 95% ethanol, male weanling rats, vitamin D deficient low calcium diet) | Serum Calcium ± S.D. ([3]; 4 µg orally in 50 µl of 95% ethanol, 24 hours later, vehicle 4.3 ± 0.2) | stimulating bone calcium mobilization (result in words) ([3]; summary of the table data, oral dosing of rats)
C=C1/C(=C\C=C2/CCC[C@]3(C)[C@@H]([C@H](C)CCCC(C)(C)O)CC[C@@H]23)C[C@@H](O)C[C@@H]1O [1α, 25-(OH)₂D₃] | 5-10 times | 2-5 times | – | – | – | – | – | – | – | –
C=C1CC[C@H](O[C@@H]2O[C@H](COC(C)=O)[C@@H](OC(C)=O)[C@H](OC(C)=O)[C@H]2OC(C)=O)C/C1=C/C=C1\CCC[C@]2(C)[C@@H]([C@H](C)CCCC(C)C)CC[C@@H]12 [Vitamin D₃ 3β- glucoside acetate, 9,10-secocholesta-5,7,10(19)-trien-3β-yl-2',3',4',6'-tetra-O-acetyl -β-D-glucopyranoside] | – | – | 1.7 ± 0.2 | appears inactive | – | – | – | – | – | –
C=C1CC[C@H](O[C@@H]2O[C@H](CO)[C@@H](O)[C@H](O)[C@H]2O)C/C1=C/C=C1\CCC[C@]2(C)[C@@H]([C@H](C)CCCC(C)C)CC[C@@H]12 [Vitamin D₃ 3β- glucoside, 9,10-secocholesta-5,7,10(19)triene-3β-yl -β-D-glucopyranoside] | – | – | – | capable of stimulating intestinal calcium absorption | 2.0 ± 0.2 | 2.5 ± 0.2 | 3.6 ± 0.3 | 3.9 ± 0.2 | 5.3 ± 0.2 | capable of stimulating
